Measurements taken from patent US6492393B1, “Compounds useful as anti-inflammatory agents” (Boehringer Ingelheim Pharmaceuticals, Inc., priority 1999, dated 2002).

System: TNFα in lipopolysaccharide stimulated THP cells
Test: Inhibition of TNF Production in THP Cells
Type: cell-based
Settings: LPS (1 μg/mL) stimulated THP.1 cells, 18-24 hr incubation, human TNFα by ELISA
Procedure: Inhibition of TNF Production in THP Cells
The inhibition of cytokine production can be observed by measuring inhibition of TNFα in lipopolysaccharide stimulated THP cells (for example, see W. Prichett et al., 1995, J. Inflammation, 45, 97). All cells and reagents were diluted in RPMI 1640 with phenol red and L-glutamine, supplemented with additional L-glutamine (total: 4 mM), penicillin and streptomycin (50 units/ml each) and fetal bovine serum (FBS, 3%) (GIBCO, all conc. final). Assay was performed under sterile conditions; only test compound preparation was nonsterile. Initial stock solutions were made in DMSO followed by dilution into RPMI 1640 2-fold higher than the desired final assay concentration. Confluent THP.1 cells (2×10^6 cells/mL, final conc.; […], Rockville, Md.) were added to 96 well polypropylene round bottomed culture plates (Costar 3790; sterile) containing 125 μL test compound (2 fold concentrated) or DMSO vehicle (controls, blanks). […] Cell mixture was allowed to preincubate for 30 min, 37° C., 5% CO2 prior to stimulation with lipopolysaccharide (LPS; 1 μg/mL final; Siga L-2630, from E. coli serotype 0111.B4; stored as 1 mg/mL stock in endotoxin screened distilled H2O at −80° C.). Blanks (unstimulated) received H2O vehicle; final incubation volume was 250 μl. Overnight incubation (18-24 hr) proceeded as described above. Assay was terminated by centrifuging plates 5 min, room temperature, 1600 rpm (400×g); supernatants were transferred to clean 96 well plates and stored −80° C. until analyzed for human TNFα by a commercially available ELISA kit (Biosource #KHC3015, Camarillo, Calif.). Data was analyzed by non-linear regression (Hill equation) to generate a dose response curve using SAS Software System (SAS institute, Inc., Cary, N.C.). The calculated IC50 value is the concentration of the test compound that caused a 50% decrease in the maximal TNFα production.

Compound	IC50
COc1ccc(C(C)(C)C)cc1NC(=O)Nc1ccc(OCCN2CCOC(COc3ccccc3)C2)c2ccccc12 (stereo not shown) [1-[5-tert-butyl-2-methoxyphenyl]-3-[4-(2-(2-phenoxymethyl)morpholin-4-yl-ethoxy)-naphthalen-1-yl]-urea]	< 10 µM
Cc1ccc(C(C)(C)C)cc1NC(=O)Nc1ccc(Oc2cccnc2)c2ccccc12 [1-[5-tert-butyl-2-methylphenyl]-3-[4-(3-pyridinyloxy)-naphthalen-1-yl]-urea]	< 10 µM
CC(C)(C)c1ccc(N2CCOCC2)c(NC(=O)Nc2ccc(OCCN3CCOCC3)c3ccccc23)c1 [1-(5-tert-Butyl-2-morpholin-4-yl-phenyl)-3-[4-(2-morpholin-4-yl-ethoxy)-naphthalen-1-yl]-urea]	< 10 µM
Cc1ccc(C(C)(C)C)cc1NC(=O)Nc1ccc(Oc2ccncc2)c2ccccc12 [1-[5-tert-butyl-2-methylphenyl]-3-[4-(4-pyridinyloxy)-naphthalen-1-yl]-urea]	< 10 µM

Further lines, results first:

IC50	Compound
< 10 µM	Cc1ccc(C(C)(C)C)cc1NC(=O)Nc1ccc(Oc2ccnc(N)c2)c2ccccc12 [1-(5-tert-Butyl-2-methylphenyl)-3-[4-(2-aminopyridin-4-yl-oxy)naphthalen-1-yl]urea]
< 10 µM	CC(C)(C)c1cc(Br)c(NCCN2CCOCC2)c(NC(=O)Nc2ccc(OCCN3CCOCC3)c3ccccc23)c1 [1-[3-Bromo-5-tert-butyl-2-(2-morpholin-4-yl-ethylamino)-phenyl]-3-[4-(2-morpholin-4-yl-ethoxy)-naphthalen-1-yl]-urea]
< 10 µM	Cc1ccc(C(C)(C)C)cc1NC(=O)Nc1ccc(OCCN2CCOCC2)c2ccccc12 [1-[5-tert-butyl-2-methylphenyl]-3-[4-(2-morpholin-4-yl-ethoxy)-naphthalen-1-yl]-urea]
